Data from patent US7262177B2, “Conjugates of glycosylated/galactosylated peptide, bifunctional linker, and nucleotidic monomers/polymers, and related compositions and methods of use” (priority 2000, dated 2007).
Like-named read-outs stand apart in the source and are kept apart here.

Key:
[1] = target: T1, thymidylate synthase (TS) (Homo sapiens, UniProt P04818); test: Thymidylate synthase activity in treated Hep G2 cells; type: cell-based; details: 1 μM, 96 hrs post treatment
T1 construct: endogenous in cells; host or cells: Hep G2
Protocol: Briefly, 10^5 Hep G2 or TSU cells were grown in culture for 48 h and then the medium was made to a concentration of 1 μM with either po 1-mer or unconjugated 5FdU. At regular intervals (24 hrs, 48 hrs, 72 hrs and 96 hrs) after treatment, the medium was removed and replaced with medium containing deoxyuridine/[^3H]-deoxyuridine mixtures. Cells were incubated at 37° C. for 30 min. Cell medium was then removed and precipitated with charcoal. The supernatant was then counted to determine the presence of [^3H]-H2O. The measurable release of [^3H] as [^3H]-H2O from deoxyuridine, 5′-monophosphate (dUMP) substrate reflects thymidylate synthase activity.

[2] = target: T2, thymidylate synthetase (TS) (Mus musculus, UniProt P07607); test: Thymidylate synthetase activity in mouse liver extract ([5-3H]-dUMP tritium release); type: biochemical, CD-1 mouse
T2 construct: from tissue; host or cells: CD-1 mouse liver, supernatant of homogenate
Protocol: A CD-1 mouse (Charles River, Wilmington, Mass.) was sacrificed and the liver removed. Approximately one gram of the tissue was subsequently washed in DPBS (Mediatech, Herndon, Va.) and placed in 3 volumes of buffer H. The tissue was then homogenized with a Dounce homogenizer and subsequently sonicated by three 15-second bursts followed by 1 min on ice. The tissue extract was then centrifuged for 10 min at 4,000 g and the resultant supernatant was spun for 20 min at 7,000 g. Three equal aliquots of this supernatant were then added to 0.9 μCi aliquots of 2′-Deoxyuridine 5′-monophosphate, diammonium salt, [5-^3H]. At this point, 5-Fluoro-2′-deoxyuridine 5′-monothiophosphate was added to one aliquot, 5-Fluoro-2′-deoxyuridine 5′-monophosphate was added to a second aliquot, and one aliquot was left untreated. The three samples were incubated at 37° C. for 30 min and precipitated with charcoal. The resultant supernatant was centrifuged at 1,600 g for 10 min. Aliquots of each sample were then counted using a Beckman scintillation counter. Percent (%) inhibition is expressed as follows: […]
These assays determined the ability of either 10 nM FdUMP (phosphodiester substrate) or FdUMPS (phosphorothioate substrate) to inhibit thymidylate synthetase (TS) activity. The objective of this assay was to determine the ability of TS to convert [5-^3H]-dUMP to ^3H-H2O.

[3] = Stability of 1-mer conjugates in RPMI 1640+10% FCS (PAGE); type: in vitro ADME; details: up to 8 hrs, PAGE analysis
Protocol: Initially, the stability of the two neoglycoconjugates was assessed in RPMI 1640+10% FCS. […] In terms of cellular uptake, the po-linked conjugate at a dose of 1 μM was taken up rapidly in a progressive manner by Hep G2 cells in vitro to the extent of 24.75 pmoles/10^6 cells at 480 min. The rate of cellular uptake was next analyzed with respect to the administered dose of the conjugate. […] This amount doubled within the next 30 min and peaked at 25 pmoles/million cells at 480 min. […] While the administration of 4 μM conjugate led to a linear increase of conjugate uptake with respect to time, the rate at which cellular uptake occurred upon the administration of 8 μM conjugate rose sharply at 120 min.

Hep G2 cells = test: Cellular uptake of 5FU 1-mer conjugates by Hep G2 cells; type: cell-based, human; details: 1 μM, 480 min
Protocol: Hep G2 cells were passaged into 2 cm^2 wells and grown in RPMI 1640 medium, which was supplemented with L-glutamine (10-040, CV) to a density of 0.3×10^6 to 0.4×10^6 cells per well (48-well cluster plate, Costar, Cambridge, Mass.). […] Then, an aliquot of the medium was saved for scintillation counting and the remainder of the medium aspirated from the well. The cells were washed with D-PBS (2×0.5 ml), treated with 0.25% trypsin (37° C., 2 minutes; trypsin prepared in HBSS with 1.0 mM EDTA) and suspended in fresh growth medium containing 10% FCS. The suspended cells were layered over silicon oil (0.5 ml) in a 1.7 ml conical microcentrifuge tube and pelleted by centrifugation at 14,000 rpm (12,000 g) for 30 seconds. The supernatant was carefully decanted and the cell pellet was lysed with 100 μl of a solution containing 0.5% NP 40, 100 mM sodium chloride, 14 mM Tris/HCl and 30% acetonitrile. The amount of radioactivity, and by inference the amount of neoglycoconjugate or oligomer associated with the cell lysate, was determined by scintillation counting.
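Throughout, for % injected dose in BLADDER: male CD-1 mice given radiolabeled test agent intravenously, organs removed at each time point and dissolved, radioactivity per organ measured by scintillation counting with efficiency correction.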
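Throughout, for % injected dose in BLOOD: male CD-1 mice given radiolabeled test agent intravenously, organs removed at each time point and dissolved, radioactivity per organ measured by scintillation counting with efficiency correction.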
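Throughout, for % injected dose in HEART: male CD-1 mice given radiolabeled test agent intravenously, organs removed at each time point and dissolved, radioactivity per organ measured by scintillation counting with efficiency correction.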
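Throughout, for % injected dose in KIDNEY: male CD-1 mice given radiolabeled test agent intravenously, organs removed at each time point and dissolved, radioactivity per organ measured by scintillation counting with efficiency correction.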

T2 sequence (P07607 whole entry): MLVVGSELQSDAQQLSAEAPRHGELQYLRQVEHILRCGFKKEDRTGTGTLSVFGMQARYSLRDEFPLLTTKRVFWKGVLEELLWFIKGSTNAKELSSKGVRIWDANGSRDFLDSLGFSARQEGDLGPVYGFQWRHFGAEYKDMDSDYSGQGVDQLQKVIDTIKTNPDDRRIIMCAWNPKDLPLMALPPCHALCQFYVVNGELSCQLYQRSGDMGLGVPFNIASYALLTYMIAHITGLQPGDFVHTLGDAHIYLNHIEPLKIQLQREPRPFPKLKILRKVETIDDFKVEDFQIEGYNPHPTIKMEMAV
T1 sequence (P04818 2-313 limits assumed): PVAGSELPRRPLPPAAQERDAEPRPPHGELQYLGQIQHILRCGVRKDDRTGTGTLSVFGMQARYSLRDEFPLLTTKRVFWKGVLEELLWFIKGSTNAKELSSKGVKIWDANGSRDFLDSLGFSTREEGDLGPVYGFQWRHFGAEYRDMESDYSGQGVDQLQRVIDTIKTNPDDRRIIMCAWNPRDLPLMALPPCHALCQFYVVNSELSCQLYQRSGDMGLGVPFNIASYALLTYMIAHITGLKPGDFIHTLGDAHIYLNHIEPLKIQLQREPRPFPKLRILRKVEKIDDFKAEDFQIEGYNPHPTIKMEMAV

O=c1[nH]c(=O)n([C@H]2C[C@H](O)[C@@H](CO)O2)cc1F [5FdU, 5-fluoro-2′-deoxyuridine]
% injected dose in BLADDER (15 MIN after tail vein i.v.): 0.91 ± 0.07%
% injected dose in BLOOD (15 MIN after tail vein i.v.): 0.03 ± 0.02%
% injected dose in HEART (15 MIN after tail vein i.v.): 0.21 ± 0.13%
% injected dose in KIDNEY (15 MIN after tail vein i.v.): 0.42 ± 0.28%
% injected dose in LG INT (15 MIN after tail vein i.v.): 1.09 ± 0.25%
% injected dose in LIVER (15 MIN after tail vein i.v.): 9.56 ± 3.83%
% injected dose in LUNGS (15 MIN after tail vein i.v.): 0.17 ± 0.07%
% injected dose in MUSCLE (15 MIN after tail vein i.v.): 9.29 ± 4.9%
% injected dose in SM INT (15 MIN after tail vein i.v.): 0.7 ± 0.04%
% injected dose in SPLEEN (15 MIN after tail vein i.v.): 0.11 ± 0.044%
% injected dose in LIVER (15 MIN after tail vein i.v., listed as unconjugated 5FdU): less than 10%
% injected dose in BLADDER (30 MIN after tail vein i.v.): 2.3 ± 1.58%
% injected dose in BLOOD (30 MIN after tail vein i.v.): .008 ± .0025%
% injected dose in HEART (30 MIN after tail vein i.v.): 0.03 ± .004%
% injected dose in KIDNEY (30 MIN after tail vein i.v.): 0.38 ± 0.3%
% injected dose in LG INT (30 MIN after tail vein i.v.): 0.37 ± 0.19%
% injected dose in LIVER (30 MIN after tail vein i.v.): 8.8 ± 1.23%
% injected dose in LUNGS (30 MIN after tail vein i.v.): 0.05 ± 0.006%
% injected dose in MUSCLE (30 MIN after tail vein i.v.): 3.43 ± 1.06%
% injected dose in SM INT (30 MIN after tail vein i.v.): 0.61 ± 0.36%
% injected dose in SPLEEN (30 MIN after tail vein i.v.): 0.19 ± 0.26%
% injected dose in BLADDER (60 MIN after tail vein i.v.): 2.99 ± 1.01%
% injected dose in BLOOD (60 MIN after tail vein i.v.): .007 ± .0023%
% injected dose in HEART (60 MIN after tail vein i.v.): 0.28 ± 0.11%
% injected dose in KIDNEY (60 MIN after tail vein i.v.): 0.84 ± 0.31%
% injected dose in LG INT (60 MIN after tail vein i.v.): 1.04 ± 0.2%
% injected dose in LIVER (60 MIN after tail vein i.v.): 4.35 ± 1.35%
% injected dose in LUNGS (60 MIN after tail vein i.v.): 0.98 ± 0.3%
% injected dose in MUSCLE (60 MIN after tail vein i.v.): 22.84%
% injected dose in SM INT (60 MIN after tail vein i.v.): 3.57 ± 1.3%
% injected dose in SPLEEN (60 MIN after tail vein i.v.): 0.57 ± 0.18%
% injected dose in BLADDER (240 MIN after tail vein i.v.): 0.010 ± .015%
% injected dose in BLOOD (240 MIN after tail vein i.v.): 0.56 ± 0.28%
% injected dose in HEART (240 MIN after tail vein i.v.): 0.32 ± 0.10%
% injected dose in KIDNEY (240 MIN after tail vein i.v.): 0.44 ± 0.12%
% injected dose in LG INT (240 MIN after tail vein i.v.): 1.61 ± 0.59%
% injected dose in LIVER (240 MIN after tail vein i.v.): 3.97 ± 0.37%
% injected dose in LUNGS (240 MIN after tail vein i.v.): 1.03 ± 0.39%
% injected dose in MUSCLE (240 MIN after tail vein i.v.): 46.56%
% injected dose in SM INT (240 MIN after tail vein i.v.): 4.19 ± 1.18%
% injected dose in SPLEEN (240 MIN after tail vein i.v.): 0.38 ± 0.04%
% injected dose in BLADDER (480 MIN after tail vein i.v.): .001 ± .0006%
% injected dose in BLOOD (480 MIN after tail vein i.v.): 0.23 ± 0.14%
% injected dose in HEART (480 MIN after tail vein i.v.): 0.06 ± .02%
% injected dose in KIDNEY (480 MIN after tail vein i.v.): 0.13 ± .044%
% injected dose in LG INT (480 MIN after tail vein i.v.): 0.35 ± 0.09%
% injected dose in LIVER (480 MIN after tail vein i.v.): 1.25 ± 0.33%
% injected dose in LUNGS (480 MIN after tail vein i.v.): 0.08 ± 0.04%
% injected dose in MUSCLE (480 MIN after tail vein i.v.): 7.9 ± 1.64%
% injected dose in SM INT (480 MIN after tail vein i.v.): 1.37 ± 0.7%
% injected dose in SPLEEN (480 MIN after tail vein i.v.): 0.09 ± 0.05%
reduction of TS activity [1]: approximately 20%

O=c1[nH]c(=O)n([C@H]2C[C@H](O)[C@@H](COP(=O)(O)O)O2)cc1F [FdUMP, 5-Fluoro-2′-deoxyuridine 5′-monophosphate]
biological activity relative to FdUMPS ([2]; 10 nM): approximately twice
inhibition at 0.01 µM ([2]; 10 nM inhibitor, 1 μM dUMP, read-out: Percent Inhibition of Thymidylate Synthetase Activity): 48%
inhibition at 0.01 µM ([2]; 10 nM inhibitor, 10 μM dUMP, read-out: Percent Inhibition of Thymidylate Synthetase Activity): 28%

O=c1[nH]c(=O)n([C@H]2C[C@H](O)[C@@H](COP(O)(O)=S)O2)cc1F [FdUMPS, 5-Fluoro-2′-deoxyuridine 5′-monothiophosphate]
inhibition at 0.01 µM ([2]; read-out: Percent Inhibition of Thymidylate Synthetase Activity, 10 nM inhibitor, 1 μM dUMP): 27%
inhibition at 0.01 µM ([2]; read-out: Percent Inhibition of Thymidylate Synthetase Activity, 10 nM inhibitor, 10 μM dUMP): 13%

CC(=O)N[C@H]1[C@H](OCCCCCCNC(=O)CC[C@H](NC(=O)CC[C@H](NC(=O)[C@H](Cc2ccc(O)cc2)NC(=O)C2CCC(CN3C(=O)CC(SCCCCCCOP(O)(=S)OC[C@H]4O[C@@H](n5cc(F)c(=O)[nH]c5=O)C[C@@H]4O)C3=O)CC2)C(=O)NCCCCCCO[C@@H]2O[C@H](CO)[C@H](O)[C@H](O)[C@H]2NC(C)=O)C(=O)NCCCCCCO[C@@H]2O[C@H](CO)[C@H](O)[C@H](O)[C@H]2NC(C)=O)O[C@H](CO)[C@H](O)[C@@H]1O (some centres unmarked) [ps 1-mer, YEE(ahGalNAc)3-SMCC-psFU]
stability in media containing 10% FCS [3]: stable
cellular uptake (Hep G2 cells): 24.98 pmoles/10^6 cells
